Measurements taken from PubChem BioAssay (NCI).
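Values below derive from 48-hour exposures of cells grown in 96-well plates, with endpoints linearly interpolated between the two concentrations bracketing the appropriate inhibition level. At the TGI there is no net growth.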

What was measured:
Assay in all cases: NCI-60 cell line screen, 48 h
[1] = system: DMS 114 small cell lung
[2] = system: MALME-3M melanoma
[3] = system: HT29 colon
[4] = system: A498 renal
[5] = system: SK-MEL-2 melanoma
[6] = system: SK-MEL-5 melanoma
[7] = system: SK-MEL-28 melanoma
[8] = system: OVCAR-4 ovarian
[9] = system: CCRF-CEM leukemia
[10] = system: DLD-1 colon
[11] = system: MOLT-4 leukemia
[12] = system: A549 NSCLC
[13] = system: SW-620 colon
[14] = system: HCT-116 colon
[15] = system: IGROV1 ovarian
[16] = system: LOX IMVI melanoma
[17] = system: K-562 leukemia
[18] = system: HL-60(TB) leukemia
[19] = system: SR leukemia
[20] = system: KM12 colon
[21] = system: NCI-H23 lung
[22] = system: LXFL 529 NSCLC
[23] = system: SF-268 CNS
[24] = system: HCT-15 colon
[25] = system: 786-0 renal
[26] = system: NCI-H522 lung
[27] = system: SN12C renal
[28] = system: TK-10 renal
[29] = system: XF 498 CNS
[30] = system: OVCAR-8 ovarian
[31] = system: OVCAR-3 ovarian
[32] = system: OVCAR-5 ovarian
[33] = system: UACC-257 melanoma
[34] = system: NCI-H226 lung
[35] = system: RPMI-8226 leukemia
[36] = system: SF-295 CNS
[37] = system: HOP-92 NSCLC
[38] = system: SF-539 CNS
[39] = system: NCI-H460 lung
[40] = system: SNB-75 CNS
[41] = system: SK-OV-3 ovarian
[42] = system: SNB-78 CNS
[43] = system: UACC-62 melanoma
[44] = system: HCC-2998 colon
[45] = system: RXF 393 renal
[46] = system: U251 CNS
[47] = system: M19-MEL melanoma
[48] = system: COLO 205 colon
[49] = system: ACHN renal
[50] = system: EKVX NSCLC
[51] = system: DMS 273 small cell lung
[52] = system: SNB-19 CNS
[53] = system: M14 melanoma
[54] = system: UO-31 renal
[55] = system: CAKI-1 renal
[56] = system: HOP-62 NSCLC
[57] = system: KM20L2 colon

CCOC(=O)c1oc2c(OC)cc(Cl)c3c2c1CCC3
TGI [1]: > 100 µM | TGI [2]: > 100 µM | TGI [3]: > 100 µM | TGI [4]: > 100 µM | TGI [5]: > 100 µM | TGI [6]: > 100 µM | TGI [7]: > 100 µM | TGI [8]: > 100 µM | TGI [9]: > 100 µM | TGI [10]: > 100 µM | TGI [11]: > 100 µM | TGI [12]: > 100 µM | TGI [13]: > 100 µM | TGI [14]: > 100 µM | TGI [15]: > 100 µM | TGI [16]: > 100 µM | TGI [17]: > 100 µM | TGI [18]: > 100 µM | TGI [19]: > 100 µM | TGI [20]: > 100 µM | TGI [21]: > 100 µM | TGI [22]: > 100 µM | TGI [23]: > 100 µM | TGI [24]: > 100 µM | TGI [25]: > 100 µM | TGI [26]: > 100 µM | TGI [27]: > 100 µM | TGI [28]: 79.3 µM | TGI [29]: 80.6 µM | TGI [30]: > 100 µM | TGI [31]: 28.3 µM | TGI [32]: > 100 µM | TGI [33]: > 100 µM | TGI [34]: 73.3 µM | TGI [35]: > 100 µM | TGI [36]: > 100 µM | TGI [37]: 63.8 µM | TGI [38]: > 100 µM | TGI [39]: > 100 µM | TGI [40]: 76.5 µM | TGI [41]: > 100 µM | TGI [42]: > 100 µM | TGI [43]: > 100 µM | TGI [44]: > 100 µM | TGI [45]: 65.3 µM | TGI [46]: > 100 µM | TGI [47]: > 100 µM | TGI [48]: > 100 µM | TGI [49]: > 100 µM | TGI [50]: > 100 µM | TGI [51]: > 100 µM | TGI [52]: 97.6 µM | TGI [53]: > 100 µM | TGI [54]: 65.1 µM

CN(N=O)C(=O)N(N)CCCCC(NC(=O)OCc1ccccc1)C(=O)OCc1ccccc1 (centres undefined)
TGI [1]: > 100 µM | TGI [2]: 95.5 µM | TGI [3]: > 100 µM | TGI [4]: > 100 µM | TGI [5]: > 100 µM | TGI [6]: > 100 µM | TGI [7]: > 100 µM | TGI [8]: > 100 µM | TGI [9]: 38.5 µM | TGI [10]: > 100 µM | TGI [11]: 52.6 µM | TGI [12]: > 100 µM | TGI [13]: > 100 µM | TGI [14]: > 100 µM | TGI [15]: > 100 µM | TGI [16]: 45.8 µM | TGI [17]: > 100 µM | TGI [18]: 16.2 µM | TGI [20]: > 100 µM | TGI [21]: 38.8 µM | TGI [55]: 72.3 µM | TGI [22]: > 100 µM | TGI [24]: > 100 µM | TGI [25]: 66.5 µM | TGI [26]: 24.9 µM | TGI [27]: 46.3 µM | TGI [28]: > 100 µM | TGI [29]: 32.2 µM | TGI [30]: > 100 µM | TGI [31]: 57 µM | TGI [56]: 34.2 µM | TGI [32]: > 100 µM | TGI [33]: 51.7 µM | TGI [34]: 96.2 µM | TGI [35]: > 100 µM | TGI [36]: > 100 µM | TGI [37]: 34.5 µM | TGI [38]: 35.2 µM | TGI [39]: > 100 µM | TGI [57]: > 100 µM | TGI [40]: 62.8 µM | TGI [41]: > 100 µM | TGI [42]: 85.9 µM | TGI [43]: 44.7 µM | TGI [44]: 63.4 µM | TGI [45]: 51.6 µM | TGI [46]: > 100 µM | TGI [47]: > 100 µM | TGI [48]: 45.6 µM | TGI [49]: 34.2 µM | TGI [50]: > 100 µM | TGI [51]: > 100 µM | TGI [52]: > 100 µM | TGI [53]: 70.7 µM | TGI [54]: 33.8 µM

COc1cc(Br)c(CC2NCCc3cc(OC)c(OC)cc32)cc1OC (centres undefined)
TGI [2]: > 100 µM | TGI [3]: > 100 µM | TGI [4]: > 100 µM | TGI [5]: > 100 µM | TGI [7]: > 100 µM | TGI [8]: > 100 µM | TGI [9]: > 100 µM | TGI [10]: > 100 µM | TGI [11]: > 100 µM | TGI [12]: > 100 µM | TGI [13]: > 100 µM | TGI [14]: > 100 µM | TGI [17]: > 100 µM | TGI [18]: > 100 µM | TGI [19]: > 100 µM | TGI [20]: > 100 µM | TGI [21]: > 100 µM | TGI [55]: > 100 µM | TGI [22]: > 100 µM | TGI [23]: > 100 µM | TGI [25]: > 100 µM | TGI [26]: > 100 µM | TGI [27]: > 100 µM | TGI [28]: > 100 µM | TGI [29]: > 100 µM | TGI [30]: > 100 µM | TGI [31]: > 100 µM | TGI [56]: > 100 µM | TGI [32]: > 100 µM | TGI [33]: > 100 µM | TGI [34]: > 100 µM | TGI [35]: > 100 µM | TGI [36]: > 100 µM | TGI [37]: > 100 µM | TGI [39]: > 100 µM | TGI [57]: > 100 µM | TGI [40]: > 100 µM | TGI [41]: > 100 µM | TGI [42]: > 100 µM | TGI [43]: > 100 µM | TGI [44]: > 100 µM | TGI [46]: > 100 µM | TGI [47]: > 100 µM | TGI [48]: > 100 µM | TGI [49]: > 100 µM | TGI [50]: > 100 µM | TGI [52]: > 100 µM | TGI [53]: > 100 µM | TGI [54]: > 100 µM

CN=C(NC#N)N(Cc1ccccc1)Cc1ccccc1
TGI [2]: > 100 µM | TGI [3]: > 100 µM | TGI [4]: > 100 µM | TGI [5]: > 100 µM | TGI [6]: > 100 µM | TGI [7]: > 100 µM | TGI [8]: > 100 µM | TGI [9]: > 100 µM | TGI [10]: > 100 µM | TGI [11]: > 100 µM | TGI [12]: > 100 µM | TGI [13]: > 100 µM | TGI [14]: > 100 µM | TGI [15]: > 100 µM | TGI [16]: > 100 µM | TGI [18]: > 100 µM | TGI [19]: > 100 µM | TGI [20]: > 100 µM | TGI [21]: > 100 µM | TGI [55]: > 100 µM | TGI [22]: > 100 µM | TGI [23]: > 100 µM | TGI [24]: > 100 µM | TGI [25]: > 100 µM | TGI [26]: > 100 µM | TGI [27]: > 100 µM | TGI [28]: > 100 µM | TGI [29]: > 100 µM | TGI [30]: > 100 µM | TGI [31]: > 100 µM | TGI [56]: > 100 µM | TGI [32]: > 100 µM | TGI [33]: > 100 µM | TGI [34]: > 100 µM | TGI [35]: > 100 µM | TGI [36]: > 100 µM | TGI [37]: > 100 µM | TGI [38]: > 100 µM | TGI [39]: > 100 µM | TGI [57]: > 100 µM | TGI [40]: > 100 µM | TGI [41]: > 100 µM | TGI [42]: > 100 µM | TGI [43]: > 100 µM | TGI [44]: > 100 µM | TGI [46]: > 100 µM | TGI [47]: > 100 µM | TGI [48]: > 100 µM | TGI [49]: > 100 µM | TGI [50]: > 100 µM | TGI [51]: > 100 µM | TGI [52]: > 100 µM | TGI [53]: > 100 µM | TGI [54]: > 100 µM

CCOC(=O)Cn1c(=O)n(C)c(=O)c2[nH]cnc21
TGI [1]: > 100 µM | TGI [2]: > 100 µM | TGI [3]: > 100 µM | TGI [4]: > 100 µM | TGI [5]: > 100 µM | TGI [6]: > 100 µM | TGI [7]: > 100 µM | TGI [9]: > 100 µM | TGI [10]: > 100 µM | TGI [11]: > 100 µM | TGI [12]: > 100 µM | TGI [13]: > 100 µM | TGI [14]: > 100 µM | TGI [15]: > 100 µM | TGI [17]: > 100 µM | TGI [19]: > 100 µM | TGI [20]: > 100 µM | TGI [21]: > 100 µM | TGI [55]: > 100 µM | TGI [22]: > 100 µM | TGI [23]: > 100 µM | TGI [24]: > 100 µM | TGI [25]: > 100 µM | TGI [26]: > 100 µM | TGI [27]: > 100 µM | TGI [28]: > 100 µM | TGI [29]: > 100 µM | TGI [30]: > 100 µM | TGI [31]: > 100 µM | TGI [56]: > 100 µM | TGI [35]: > 100 µM | TGI [37]: > 100 µM | TGI [38]: > 100 µM | TGI [39]: > 100 µM | TGI [40]: > 100 µM | TGI [41]: > 100 µM | TGI [42]: > 100 µM | TGI [43]: > 100 µM | TGI [46]: > 100 µM | TGI [47]: > 100 µM | TGI [48]: > 100 µM | TGI [49]: > 100 µM | TGI [50]: > 100 µM | TGI [51]: > 100 µM | TGI [52]: > 100 µM | TGI [53]: > 100 µM | TGI [54]: > 100 µM
